Test results published in US9376418B2, “Substituted pyridine spleen tyrosine kinase (SYK) inhibitors” (Merck Sharp & Dohme Corp., priority 2012, dated 2016).

Each compound was assayed against T1, recombinant human GST-SYK (Homo sapiens, UniProt P43405) (assay: Homogeneous Time-Resolved Fluorescence (HTRF) assay for the recombinant human Syk enzyme). Conditions: HTRF assay, recombinant human GST-SYK; IC50 given as class symbols; read-out: rhSYK Activity.
T1 construct: purchased Carna Biosciences 08-176
Format: biochemical
How it was run: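 Enzyme […], pH 7.5 Tris/tween/DTT buffer; 10 min preincubation with compound, RT. Start: 250 nM biotin-peptide, 25 μM ATP, 5 mM Mg; 45′ RT. Stop/detect: 40 mM EDTA, Eu-anti-pTyr, SA-APC; read 30 min later.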

SMILES | IC50 [nM]
Cc1cc(Nc2nccc(C(F)(F)F)n2)cc(-c2ccc(CC(=O)N(C)C)nc2)c1 [Example 3.2, N,N-dimethyl-2-(5-(3-methyl-5-((4-(trifluoromethyl)pyrimidin-2-yl)amino)phenyl)pyridin-2-yl)acetamide] | < 100
Cc1cc(Nc2nccc(C(F)(F)F)n2)cc(-c2cncc(NCCO)c2)c1 [Example 15.22, 2-{[5-(3-Methyl-5-{[4-(trifluoromethyl)pyrimidin-2-yl]amino}phenyl)pyridin-3-yl]amino}ethanol] | < 100
CC(=O)N1CCN(C(=O)c2ccc(-c3cc(C)cc(Nc4nccc(C(F)(F)F)n4)c3)cn2)CC1 [Example 16.24, N-(3-{6-[(4-acetylpiperazin-1-yl)carbonyl]pyridin-3-yl}-5-methylphenyl)-4-(trifluoromethyl)pyrimidin-2-amine] | < 100
Cc1cc(Nc2nccc(C(F)(F)F)n2)cc(-c2ccnc(C3(O)CCC(C(=O)O)C(C)(C)C3)c2)c1 (single isomer, unassigned) [Example 9.59, (1S,4R or 1R,4S)-4-hydroxy-2,2-dimethyl-4-[4-(3-methyl-5-{[4-(trifluoromethyl)pyrimidin-2-yl]amino}phenyl)pyridin-2-yl]cyclohexanecarboxylic acid] | < 100
Cc1cc(Nc2nccc(C(F)(F)F)n2)cc(-c2ccc(C(=O)NCc3cncn3C)nc2)c1 [Example 16.15, N-[(1-methyl-1H-imidazol-5-yl)methyl]-5-(3-methyl-5-{[4-(trifluoromethyl)pyrimidin-2-yl]amino}phenyl)pyridine-2-carboxamide] | 100 to 1000
CC(=O)N1CCCN(c2cc(-c3cc(C)cc(Nc4nccc(C(F)(F)F)n4)c3)ccn2)CC1 [Example 15.75, N-{3-[2-(4-acetyl-1,4-diazepan-1-yl)pyridin-4-yl]-5-methylphenyl}-4-(trifluoromethyl)pyrimidin-2-amine] | 100 to 1000
CC1(C)CC(O)(c2ccc(-c3cccc(Nc4nccc(C(F)(F)F)n4)c3)cn2)CCC1C(=O)O (centres unmarked) [Example 9.43, 4-hydroxy-2,2-dimethyl-4-[5-(3-{[4-(trifluoromethyl)pyrimidin-2-yl]amino}phenyl)pyridin-2-yl]cyclohexanecarboxylic acid] | < 100
Cc1cc(Nc2nccc(C(F)(F)F)n2)cc(-c2ccc(N3CCC[C@@H](C(=O)N4CCC[C@H](C(=O)O)C4)C3)nc2)c1 [Example 7.150, (3S)-1-({(3R)-1-[5-(3-methyl-5-{[4-(trifluoromethyl)pyrimidin-2-yl]amino}phenyl)pyridin-2-yl]piperidin-3-yl}carbonyl)piperidine-3-carboxylic acid] | < 100
Cc1cc(Nc2nccc(C(F)(F)F)n2)cc(-c2ccnc(N3CCNC(=O)C3)c2)c1 [Example 15.44, 4-[4-(3-methyl-5-{[4-(trifluoromethyl)pyrimidin-2-yl]amino}phenyl)pyridin-2-yl]piperazin-2-one] | < 100
Cc1cc(Nc2nccc(C(F)(F)F)n2)cc(-c2ccc(C3(O)CCC(C(=O)O)C(C)(C)C3)nc2)c1 (single isomer, unassigned) [Example 9.16, (1R,4S or 1S,4R)-4-hydroxy-2,2-dimethyl-4-[5-(3-methyl-5-{[4-(trifluoromethyl)pyrimidin-2-yl]amino}phenyl)pyridin-2-yl]cyclohexanecarboxylic acid] | < 100
Cc1cc(Nc2nccc(C(F)(F)F)n2)cc(-c2ccc(C(=O)N3CCn4ccnc4C3)nc2)c1 [Example 16.32, N-{3-[6-(5,6-dihydroimidazo[1,2-a]pyrazin-7(8H)-ylcarbonyl)pyridin-3-yl]-5-methylphenyl}-4-(trifluoromethyl)pyrimidin-2-amine] | < 100
CCC(C)(C#N)Nc1ccc(-c2cc(C)cc(Nc3nccc(C(F)(F)F)n3)c2)cn1 (centres unmarked) [Example 18.4, 2-methyl-2-{[5-(3-methyl-5-{[4-(trifluoromethyl)pyrimidin-2-yl]amino}phenyl)pyridin-2-yl]amino}butanenitrile] | 100 to 1000
Cc1cc(Nc2nccc(C(F)(F)F)n2)cc(-c2cnc3c(c2)OCCN3)c1 [Example 2.52, N-[3-(3,4-dihydro-2H-pyrido[3,2-b][1,4]oxazin-7-yl)-5-methylphenyl]-4-(trifluoromethyl)pyrimidin-2-amine] | < 100
Cc1cc(Nc2nccc(C(F)(F)F)n2)cc(-c2ccc(C(C)(O)CO)nc2)c1 (centres unmarked) [Example 9.1, 2-[5-(3-Methyl-5-{[4-(trifluoromethyl)pyrimidin-2-yl]amino}phenyl)pyridin-2-yl]propane-1,2-diol] | < 100
Cc1cc(Nc2nccc(C(F)(F)F)n2)cc(-c2ccnc(N3CCCC4(CCCNC4=O)C3)c2)c1 (centres unmarked) [Example 15.27, 8-[4-(3-methyl-5-{[4-(trifluoromethyl)pyrimidin-2-yl]amino}phenyl)pyridin-2-yl]-2,8-diazaspiro[5.5]undecan-1-one] | < 100
Cc1cc(Nc2nccc(C)n2)cc(-c2ccc(CCC(=O)O)cn2)c1 [Example 2.34, 3-(6-{3-methyl-5-[(4-methylpyrimidin-2-yl)amino]phenyl}pyridin-3-yl)propanoic acid] | 100 to 1000
O=C(O)CCc1ccnc(-c2cccc(Nc3nccc(C(F)(F)F)n3)c2)c1 [Example 2.18, 3-[2-(3-{[4-(trifluoromethyl)pyrimidin-2-yl]amino}phenyl)pyridin-4-yl]propanoic acid] | 100 to 1000

SMILES | IC50 [nM]
Cc1cc(Nc2nccc(C(F)(F)F)n2)cc(-c2ccnc(Br)c2)c1 [Example 2.127, N-[3-(2-bromopyridin-4-yl)-5-methylphenyl]-4-(trifluoromethyl)pyrimidin-2-amine] | 100 to 1000
Cc1cc(Nc2nccc(C3CC3)n2)cc(-c2ccc(CCC(=O)O)cn2)c1 [Example 2.40, 3-(6-{3-[(4-cyclopropylpyrimidin-2-yl)amino]-5-methylphenyl}pyridin-3-yl)propanoic acid] | < 100
Cc1cc(Nc2nccc(C(F)(F)F)n2)cc(-c2ccc(C(=O)NCC3CCC(=O)N3)nc2)c1 (centres unmarked) [Example 16.30, 5-(3-methyl-5-{[4-(trifluoromethyl)pyrimidin-2-yl]amino}phenyl)-N-[(5-oxopyrrolidin-2-yl)methyl]pyridine-2-carboxamide] | < 100
CCOC(=O)CCc1cc(-c2cc(C)cc(Nc3nccc(C4CC4)n3)c2)ccn1 [Example 2.136, ethyl 3-(4-{3-[(4-cyclopropylpyrimidin-2-yl)amino]-5-methylphenyl}pyridin-2-yl)propanoate] | 100 to 1000
Cc1cc(Nc2nccc(C(F)(F)F)n2)cc(-c2cncc(C(=O)NCC(O)CO)c2)c1 (centres unmarked) [Example 15.90, N-(2,3-dihydroxypropyl)-5-(3-methyl-5-{[4-(trifluoromethyl)pyrimidin-2-yl]amino}phenyl)pyridine-3-carboxamide] | < 100
Cc1cc(Nc2nccc(C(F)(F)F)n2)cc(-c2ccnc(NC3COC3)c2)c1 [Example 15.62, N-{3-methyl-5-[2-(oxetan-3-ylamino)pyridin-4-yl]phenyl}-4-(trifluoromethyl)pyrimidin-2-amine] | 100 to 1000
Cc1cc(Nc2nccc(C(F)(F)F)n2)cc(-c2cnc3c(c2)OCCN3C)c1 [Example 2.55, N-[3-methyl-5-(4-methyl-3,4-dihydro-2H-pyrido[3,2-b][1,4]oxazin-7-yl)phenyl]-4-(trifluoromethyl)pyrimidin-2-amine] | < 100
Cc1cc(Nc2ncc(F)c(C3CC3)n2)cc(-c2ccc(N3CC[C@H]3C(=O)O)nc2)c1 [Example 7.161, (2S)-1-(5-{3-[(4-cyclopropyl-5-fluoropyrimidin-2-yl)amino]-5-methylphenyl}pyridin-2-yl)azetidine-2-carboxylic acid] | < 100
Cc1cc(Nc2nccc(C(F)(F)F)n2)cc(-c2ccnc(N3CCCC4(CCCCO4)C3)c2)c1 (centres unmarked) [Example 15.26, N-{3-methyl-5-[2-(1-oxa-8-azaspiro[5.5]undec-8-yl)pyridin-4-yl]phenyl}-4-(trifluoromethyl)pyrimidin-2-amine] | 1000 to 10000
COc1ccnc(Nc2cc(C)cc(-c3cc(CCC(=O)O)ccn3)c2)n1 [Example 2.21, 3-(2-{3-[(4-methoxypyrimidin-2-yl)amino]-5-methylphenyl}pyridin-4-yl)propanoic acid] | < 100
COCC(Nc1ccc(-c2cc(C)cc(Nc3nccc(C(F)(F)F)n3)c2)cn1)C(=O)O (centres unmarked) [Example 7.76, O-methyl-N-[5-(3-methyl-5-{[4-(trifluoromethyl)pyrimidin-2-yl]amino}phenyl)pyridin-2-yl]serine] | < 100
Cc1cc(Nc2nccc(C(F)(F)F)n2)cc(-c2ccc(NCCC(=O)O)nc2)c1 [Example 7.88, N-[5-(3-methyl-5-{[4-(trifluoromethyl)pyrimidin-2-yl]amino}phenyl)pyridin-2-yl]-beta-alanine] | < 100
Cc1cc(Nc2nccc(C(F)(F)F)n2)cc(-c2ccc(N3CCCC3C(=O)O)nc2)c1 (single isomer, unassigned) [Example 7.122, 1-[5-(3-methyl-5-{[4-(trifluoromethyl)pyrimidin-2-yl]amino}phenyl)pyridin-2-yl]proline] | < 100
Cc1cc(Nc2nccc(C(F)(F)F)n2)cc(-c2cncc(NCc3ccc[nH]c3=O)c2)c1 [Example 15.21, 3-({[5-(3-methyl-5-{[4-(trifluoromethyl)pyrimidin-2-yl]amino}phenyl)pyridin-3-yl]amino}methyl)pyridin-2(1H)-one] | < 100
Cc1cc(Nc2nccc(C(F)(F)F)n2)cc(-c2ccc(C(=O)N3CCOC3=O)nc2)c1 [Example 16.3, 3-{[5-(3-Methyl-5-{[4-(trifluoromethyl)pyrimidin-2-yl]amino}phenyl)pyridin-2-yl]carbonyl}-1,3-oxazolidin-2-one] | < 100
CC(=O)Nc1cc(Nc2nccc(C(F)(F)F)n2)cc(-c2ccc(NC(C)(C)C(=O)O)nc2)c1 [Example 7.1, N-{5-[3-(acetylamino)-5-{[4-(trifluoromethyl)pyrimidin-2-yl]amino}phenyl]pyridin-2-yl}-2-methylalanine] | < 100

Same assay, conditions: recombinant GST-hSYK, 25 μM ATP, HTRF; read-out: IC50 (inhibition of human Syk activity)

SMILES | IC50 [nM]
Cc1cc(Nc2nccc(C(F)(F)F)n2)cc(-c2ccc(C(C)(O)CO)nc2)c1 (centres unmarked) [Example 9.1, 2-[5-(3-Methyl-5-{[4-(trifluoromethyl)pyrimidin-2-yl]amino}phenyl)pyridin-2-yl]propane-1,2-diol] | 17.9
CC(=O)Nc1cc(Nc2nccc(C(F)(F)F)n2)cc(-c2ccc(NC(C)(C)C(=O)O)nc2)c1 [Example 7.1, N-{5-[3-(acetylamino)-5-{[4-(trifluoromethyl)pyrimidin-2-yl]amino}phenyl]pyridin-2-yl}-2-methylalanine] | 3.9
